# Measured values as given in patent publication US11744816B2, “Fixed dose combinations and formulations comprising ETC1002 and ezetimibe and methods of treating or reducing the risk of cardiovascular disease” (Esperion Therapeutics, Inc., priority 2015, dated 2023).
# Entries after “also recorded” stand apart in the source; their conditions may differ.
# System: hypercholesterolemic patients
# Experiment: Phase 2b double-blind trial: safety, treatment-emergent adverse events and laboratory abnormalities
# [1] = ETC-1002 120 mg once daily, 12 weeks, safety population
# [2] = ETC-1002 120 mg once daily, 12 weeks, statin-intolerant patients
# [3] = ETC-1002 120 mg once daily, 12 weeks, statin-tolerant patients
# [4] = ETC-1002 180 mg once daily, 12 weeks, safety population
# Procedure: The study population included both statin-tolerant and statin-intolerant participants. Statin intolerance was defined as the inability to tolerate ≥2 statins because of muscle-related symptoms such as pain, weakness, or cramping that began or increased during statin therapy and resolved on statin discontinuation. At least 1 statin must have been administered at the lowest approved daily dose, defined as rosuvastatin 5 mg, atorvastatin 10 mg, simvastatin 10 mg, lovastatin 20 mg, pravastatin 40 mg, fluvastatin 40 mg, or pitavastatin 2 mg. Treatment with less than the lowest approved daily dose of a statin (i.e., skipping days) was considered equivalent to not tolerating 1 statin at the lowest approved daily dose.
# Patients underwent a 5-week washout of all lipid-regulating drugs and dietary supplements and abstained from these drugs and supplements throughout the study. Patients also underwent a 5-week patient-only-blinded placebo run-in during the screening period (week −5 to week 0). This single-blind placebo run-in period was used to eliminate patients with muscle-related AEs during placebo treatment. Patients reporting new or worsening, unexplained muscle-related AEs during this run-in period were excluded from the study.
# Patients were stratified (1:1) by history of statin intolerance and randomized at week 0 in a 4:4:4:1:1 ratio to once-daily treatment with capsules containing ETC-1002 120 mg, ETC-1002 180 mg, EZE, ETC-1002 120 mg plus EZE, or ETC-1002 180 mg plus EZE.
# The safety of ETC-1002 was assessed using treatment-emergent AEs; hematology, serum chemistry, and urinalysis laboratory values; physical examination findings, vital sign measurements, electrocardiogram (ECG) readings; weight; and ankle and waist circumference measurements. AEs were coded using the Medical Dictionary for Regulatory Activities version 16.0 and evaluated by the investigator for severity and relation to study drug. Muscle-related AEs were defined as those from the system organ class of musculoskeletal and connective tissue disorders, except for those that were not obviously muscle related Terms included in the muscle-related AFE analysis were selected from this system organ class after database lock and before unblinding.
# Safety analyses were performed on the safety population, which included randomized patients who received at least 1 dose of study drug. Baseline patient characteristics were summarized for the safety population by treatment group and statin-tolerance subgroup.
# Muscle-related AEs also were summarized by statin-tolerance subgroup.
smiles,measurement,setting,value
"CC(C)(CCCCCC(O)CCCCCC(C)(C)C(=O)O)C(=O)O [ETC-1002, 8-hydroxy-2,2,14,14 tetramethylpentadecanedioic acid]","Alanine aminotransferase or aspartate aminotransferase, or both, increased >3 times the upper limit of normal at any measurement",ETC-1002 120 mg,1 patients
same,Serious AEs reported (events),ETC-1002 120 mg,hemothorax; also recorded: sudden death
same,Most common AEs: ALT increased,[1],0 n (%)
same,Most common AEs: AST increased,[1],0 n (%)
same,Most common AEs: Arthralgia,[1],4 (4%) n (%)
same,Most common AEs: Back pain,[1],1 (1%) n (%)
same,Most common AEs: Blood CK increased,[1],1 (1%) n (%)
same,Most common AEs: Constipation,[1],3 (3%) n (%)
same,Most common AEs: Headache,[1],3 (3%) n (%)
same,Most common AEs: Myalgia,[1],3 (3%) n (%)
same,Most common AEs: Nasopharyngitis,[1],3 (3%) n (%)
same,Most common AEs: Upper respiratory tract infection,[1],6 (6%) n (%)
same,Most common AEs: Urinary tract infection,[1],0 n (%)
same,Treatment-emergent AEs: Any AE(s),[1],50 (51%) n (%)
same,Treatment-emergent AEs: Discontinuation due to AE(s),[1],3 (3%) n (%)
same,Treatment-emergent AEs: Serious AE(s),[1],2 (2%) n (%)
same,Treatment-emergent AEs: Study drug-related AE(s),[1],13 (13%) n (%)
same,Any muscle-related AE,[2],7 (14%) n (%)
same,Muscle-related AE leading to discontinuation,[2],1 (2%) n (%)
same,Muscle-related AEs: Muscle spasms,[2],3 (6%) n (%)
same,Muscle-related AEs: Muscular weakness,[2],2 (4%) n (%)
same,Muscle-related AEs: Musculoskeletal chest pain,[2],0 n (%)
same,Muscle-related AEs: Musculoskeletal stiffness,[2],0 n (%)
same,Muscle-related AEs: Myalgia,[2],2 (4%) n (%)
same,Muscle-related AEs: Pain in extremity,[2],1 (2%) n (%)
same,Muscle-related AEs: Sensation of heaviness,[2],0 n (%)
same,Any muscle-related AE,[3],1 (2%) n (%)
same,Muscle-related AE leading to discontinuation,[3],0 n (%)
same,Muscle-related AEs: Muscle spasms,[3],0 n (%)
same,Muscle-related AEs: Musculoskeletal pain,[3],0 n (%)
same,Muscle-related AEs: Myalgia,[3],1 (2%) n (%)
same,"Myalgia, patients affected","ETC-1002 120 mg, entire study population",3%
same,"Alanine aminotransferase or aspartate aminotransferase, or both, increased >3 times the upper limit of normal at any measurement",ETC-1002 180 mg,2 patients
same,Serious AEs reported (events),ETC-1002 180 mg,pancreatitis relapse
same,Most common AEs: ALT increased,[4],0 n (%)
same,Most common AEs: AST increased,[4],0 n (%)
same,Most common AEs: Arthralgia,[4],1 (1%) n (%)
same,Most common AEs: Back pain,[4],1 (1%) n (%)
same,Most common AEs: Blood CK increased,[4],4 (4%) n (%)
same,Most common AEs: Constipation,[4],1 (1%) n (%)
same,Most common AEs: Headache,[4],2 (2%) n (%)
same,Most common AEs: Myalgia,[4],1 (1%) n (%)
same,Most common AEs: Nasopharyngitis,[4],5 (5%) n (%)
